Source: patent US20240238424A1, “HETEROBIFUNCTIONAL COMPOUNDS AND METHODS OF TREATING DISEASE” (Halda Therapeutics OpCo, Inc., priority 2021, published 2024)

What was measured:
Type in all cases: cell-based
GSPT1 = target: T1, GSPT1 (Homo sapiens, UniProt P15170+Q96SW2); test: GSPT1 HiBit degradation assay; settings: HEK293 LgBiT cells expressing GSPT1_HiBiT, luminescence after 6 hours
T1 construct: host or cells: HEK293 LgBiT cell line
Summary of the method: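 HEK293 cells stably expressing LgBiT and GSPT1-HiBiT, seeded 18-24 h before dosing, were treated with titrated compound plus endurazine (0.5× final) at 37 °C. Luminescence loss after 6 h reflects GSPT1 degradation; DC50 is the concentration giving 50% degradation.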

HeLa KRas G12C cells = test: Cellular growth inhibition assay (CTG), HeLa KRas G12C cells; settings: Homo sapiens, CellTiter-Glo 2.0, day-5
Summary of the method: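 Cells were seeded at 250 cells/well (continuous) or 1000 cells/well (washout, compound removed after 4 h), then treated after 24 h with 3-fold dilutions from a 10 μM or 30 μM final top concentration. CellTiter-Glo 2.0 luminescence at day 0 and day 5 was normalized to DMSO day-0 wells; GI50 from four-parameter fit.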

[1] = system: 293 mutant EGFR_T790M L858R Cells; test: Cellular growth inhibition assay (CTG), 293 mutant EGFR_T790M L858R cells; settings: 293 mutant EGFR T790M L858R cells, CellTiter-Glo 2.0, day-5
Protocol: Cells were seeded in Poly-D-lysine-treated 384-well white plates, with 25 μL cell suspension at 250 cells/well for continuous treatments, and 1000 cells/well for washout treatments. Plates were spun at 300×g for 3 minutes, and cells were cultured at 37° C. with 5% CO2 in a humidified tissue culture incubator.
After 24 hours, the test compounds were diluted with cell culture medium in 96 deep well plates. DMSO was used as a negative control. A 25 μL aliquot of compound-containing medium was added in each well, at a final top concentration of 10 μM or 30 μM test compound, with 3-fold dilutions. For washout assays, after 4 hours, cell medium with compound was removed, and the cells were washed with 75p L fresh medium. Plates were then spun at 300×g for 3 minutes and replaced with 50 μL fresh medium in each well. Plates were then spun at 300×g for 3 minutes again and cultured at 37° C. with 5% CO2.
At day-0 and day-5 of compound treatments, cell viability was quantified with CellTiter-Glo 2.0 (Promega). After equilibrating cell plates at room temperature for 30 minutes, 25 μL CellTiter-Glo 2.0 reagent was dispensed into each well (on top of 50 μL of cell culture). Plates were mixed on a shaker for 2 minutes at 500 rpm, followed by a 10-minute incubation at room temperature. Luminescence readings were measured with an EnVision Plate Reader. Data was normalized to DMSO treated day-0 cell wells. A four-parameter non-linear regression curve fit was applied to dose-response data in Prism to determine the half maximal growth inhibitory concentration (GI50) of each compound.

T1 sequence (P15170 whole entry): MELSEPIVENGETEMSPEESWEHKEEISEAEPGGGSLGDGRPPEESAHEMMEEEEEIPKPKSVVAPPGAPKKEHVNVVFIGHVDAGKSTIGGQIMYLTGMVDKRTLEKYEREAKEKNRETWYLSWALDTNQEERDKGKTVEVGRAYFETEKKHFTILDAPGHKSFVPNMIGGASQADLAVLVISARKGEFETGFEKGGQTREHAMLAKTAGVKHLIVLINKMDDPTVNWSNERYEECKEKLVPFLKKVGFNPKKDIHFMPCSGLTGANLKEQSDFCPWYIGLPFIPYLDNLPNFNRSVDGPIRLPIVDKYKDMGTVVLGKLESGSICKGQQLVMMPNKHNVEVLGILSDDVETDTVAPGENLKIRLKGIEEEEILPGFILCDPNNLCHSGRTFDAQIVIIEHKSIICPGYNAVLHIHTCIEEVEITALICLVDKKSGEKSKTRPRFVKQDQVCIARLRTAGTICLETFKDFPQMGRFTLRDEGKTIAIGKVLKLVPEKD
T1 sequence (Q96SW2 whole entry): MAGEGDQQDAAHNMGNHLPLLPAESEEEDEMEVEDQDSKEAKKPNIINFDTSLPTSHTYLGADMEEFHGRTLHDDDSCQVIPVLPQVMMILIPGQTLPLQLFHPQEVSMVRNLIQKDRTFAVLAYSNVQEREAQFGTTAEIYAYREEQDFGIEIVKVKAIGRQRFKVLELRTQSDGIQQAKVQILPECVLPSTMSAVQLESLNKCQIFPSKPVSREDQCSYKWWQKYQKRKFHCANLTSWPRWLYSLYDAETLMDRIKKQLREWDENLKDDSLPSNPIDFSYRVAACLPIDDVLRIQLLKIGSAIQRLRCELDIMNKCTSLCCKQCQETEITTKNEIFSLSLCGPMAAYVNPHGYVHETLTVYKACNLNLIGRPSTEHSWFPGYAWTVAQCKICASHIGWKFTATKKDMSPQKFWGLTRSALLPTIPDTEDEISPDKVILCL
T1 sequence (Q16531 whole entry partner): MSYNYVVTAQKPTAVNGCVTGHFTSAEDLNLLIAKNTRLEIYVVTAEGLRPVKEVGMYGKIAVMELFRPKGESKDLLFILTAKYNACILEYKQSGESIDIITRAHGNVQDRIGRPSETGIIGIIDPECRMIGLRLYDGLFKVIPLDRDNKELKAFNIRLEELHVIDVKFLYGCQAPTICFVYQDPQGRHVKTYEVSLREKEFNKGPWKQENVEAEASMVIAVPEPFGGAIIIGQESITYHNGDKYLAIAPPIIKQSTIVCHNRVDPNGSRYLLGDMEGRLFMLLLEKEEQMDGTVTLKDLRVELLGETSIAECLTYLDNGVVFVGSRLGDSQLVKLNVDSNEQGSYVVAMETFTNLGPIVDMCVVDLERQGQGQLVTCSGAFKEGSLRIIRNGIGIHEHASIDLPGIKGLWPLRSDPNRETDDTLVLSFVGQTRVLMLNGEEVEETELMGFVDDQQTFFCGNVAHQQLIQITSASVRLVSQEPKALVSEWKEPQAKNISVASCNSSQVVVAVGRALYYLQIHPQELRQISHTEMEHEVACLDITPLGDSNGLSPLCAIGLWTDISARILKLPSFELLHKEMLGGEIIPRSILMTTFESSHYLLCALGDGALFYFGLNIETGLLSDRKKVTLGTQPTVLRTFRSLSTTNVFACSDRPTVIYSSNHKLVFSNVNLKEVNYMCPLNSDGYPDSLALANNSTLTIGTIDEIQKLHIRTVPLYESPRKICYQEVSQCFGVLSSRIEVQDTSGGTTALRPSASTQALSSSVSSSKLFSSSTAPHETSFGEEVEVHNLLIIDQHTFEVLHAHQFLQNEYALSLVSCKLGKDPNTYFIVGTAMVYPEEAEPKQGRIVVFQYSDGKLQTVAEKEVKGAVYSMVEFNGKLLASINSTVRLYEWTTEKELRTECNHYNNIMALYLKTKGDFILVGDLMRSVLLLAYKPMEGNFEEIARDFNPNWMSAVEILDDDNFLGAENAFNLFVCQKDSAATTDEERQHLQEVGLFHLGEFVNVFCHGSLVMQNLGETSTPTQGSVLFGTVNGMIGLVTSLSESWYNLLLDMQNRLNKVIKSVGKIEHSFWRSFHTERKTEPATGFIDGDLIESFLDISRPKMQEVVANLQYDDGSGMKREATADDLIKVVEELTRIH

Compound	DC50 (GSPT1; Table 3)	GI50 (HeLa KRas G12C cells)	GI50 [1]	DC50 (GSPT1; Table 3A)
C=C(F)C(=O)N1CCN(c2nc(OC[C@@H]3CCCN3CCOCCOCCOCCOCCOCCOCCOCCOCCOCCOCCOCCOCCCCCCCCc3cc(Cl)cc(NC(=O)NCc4ccc5c(c4)CN(C4CCC(=O)NC4=O)C5=O)c3)nc3c2CCN(c2cccc4cccc(Cl)c24)C3)C[C@@H]1CC#N (stereo partly drawn) [Compound I-46]	< 250 nM	< 1000 nM		
C=C(F)C(=O)N1CCN(c2nc(OC[C@@H]3CCCN3CCOCCOCCOCCOCCOCCOCCOCCOCCOCCOCCOCCOCCOCCOCCCCCCCCc3cc(Cl)cc(NC(=O)NCc4ccc5c(c4)CN(C4CCC(=O)NC4=O)C5=O)c3)nc3c2CCN(c2cccc4cccc(Cl)c24)C3)C[C@@H]1CC#N (stereo partly drawn) [Compound I-47]	< 250 nM	< 1000 nM		
C=C(F)C(=O)N1CCN(c2nc(OC[C@@H]3CCCN3CCOCCOCCCCCCCCCCCCCCc3cc(Cl)cc(NC(=O)NCc4ccc5c(c4)CN(C4CCC(=O)NC4=O)C5=O)c3)nc3c2CCN(c2cccc4cccc(Cl)c24)C3)C[C@@H]1CC#N (stereo partly drawn) [Compound I-48]	250 to 5000 nM	3000 to 10000 nM		
C=C(F)C(=O)N1CCN(c2nc(OC[C@@H]3CCCN3CCOCCOCCOCCOCCCCCCCCCCCCCCc3cc(Cl)cc(NC(=O)NCc4ccc5c(c4)CN(C4CCC(=O)NC4=O)C5=O)c3)nc3c2CCN(c2cccc4cccc(Cl)c24)C3)C[C@@H]1CC#N (stereo partly drawn) [Compound I-49]	250 to 5000 nM	> 10000 nM		
C=C(F)C(=O)N1CCN(c2nc(OC[C@@H]3CCCN3CCOCCOCCOCCOCCOCCOCCCCCCCCCCCCCCc3cc(Cl)cc(NC(=O)NCc4ccc5c(c4)CN(C4CCC(=O)NC4=O)C5=O)c3)nc3c2CCN(c2cccc4cccc(Cl)c24)C3)C[C@@H]1CC#N (stereo partly drawn) [Compound I-50]	250 to 5000 nM	< 1000 nM		
C=C(F)C(=O)N1CCN(c2nc(OC[C@@H]3CCCN3CCOCCOCCOCCOCCOCCOCCOCCOCCCCCCCCCCCCCCc3cc(Cl)cc(NC(=O)NCc4ccc5c(c4)CN(C4CCC(=O)NC4=O)C5=O)c3)nc3c2CCN(c2cccc4cccc(Cl)c24)C3)C[C@@H]1CC#N (stereo partly drawn) [Compound I-51]	250 to 5000 nM	< 1000 nM		
C=C(F)C(=O)N1CCN(c2nc(OC[C@@H]3CCCN3CCOCCOCCOCCOCCOCCOCCOCCOCCOCCOCCCCCCCCCCCCCCc3cc(Cl)cc(NC(=O)NCc4ccc5c(c4)CN(C4CCC(=O)NC4=O)C5=O)c3)nc3c2CCN(c2cccc4cccc(Cl)c24)C3)C[C@@H]1CC#N (stereo partly drawn) [Compound I-52]	250 to 5000 nM	< 1000 nM		
C=C(F)C(=O)N1CCN(c2nc(OC[C@@H]3CCCN3CCOCCOCCOCCOCCOCCOCCOCCOCCOCCOCCOCCOCCCCCCCCCCCCCCc3cc(Cl)cc(NC(=O)NCc4ccc5c(c4)CN(C4CCC(=O)NC4=O)C5=O)c3)nc3c2CCN(c2cccc4cccc(Cl)c24)C3)C[C@@H]1CC#N (stereo partly drawn) [Compound I-53]	< 250 nM	< 1000 nM		
C=C(F)C(=O)N1CCN(c2nc(OC[C@@H]3CCCN3CCOCCOCCOCCOCCOCCCCCc3cc(Cl)cc(NC(=O)NCc4ccc5c(c4)CN(C4CCC(=O)NC4=O)C5=O)c3)nc3c2CCN(c2cccc4cccc(Cl)c24)C3)C[C@@H]1CC#N (stereo partly drawn) [Compound I-54]	250 to 5000 nM	< 1000 nM		
C=CC(=O)Nc1cc(Nc2nccc(-c3cn(C)c4ccccc34)n2)c(OC)cc1N(C)CCN(C)CCOCCOCCOCCCCCc1cc(Cl)cc(NC(=O)NCc2ccc3c(c2)CN(C2CCC(=O)NC2=O)C3=O)c1 (stereo not drawn) [Compound I-102]			1000 to 5000 nM	250 to 5000 nM
CN(C/C=C/C(=O)N1CCN(c2nc(OC[C@@H]3CCCN3C)nc3c2CCN(c2cccc4cccc(Cl)c24)C3)C[C@@H]1CC#N)CCOCCOCCOCCOCCOCCCCCc1cc(Cl)cc(NC(=O)NCc2ccc3c(c2)CN(C2CCC(=O)N(C)C2=O)C3=O)c1 (stereo partly drawn) [Compound I-116]		1000 to 3000 nM		250 to 5000 nM
C=C(F)C(=O)N1CCN(c2nc(OC[C@@H]3CCCN3CCCOCCOCCOCCOCCOCCOCCOCCCCCc3cc(Cl)cc(NC(=O)NCc4ccc5c(c4)CN(C4CCC(=O)NC4=O)C5=O)c3)nc3c2CCN(c2cccc4cccc(Cl)c24)C3)C[C@@H]1CC#N (stereo partly drawn) [Compound I-118]		1000 to 3000 nM		250 to 5000 nM
COc1cc(N2CCN(C(=O)COCCOCCOCCOCCOCCOCCOCCCCCc3cc(Cl)cc(NC(=O)NCc4ccc5c(c4)CN(C4CCC(=O)NC4=O)C5=O)c3)CC2)ccc1Nc1ncc(Cl)c(Nc2ccccc2P(C)(C)=O)n1 (stereo not drawn) [Compound I-120]			1000 to 5000 nM	250 to 5000 nM
C=CC(=O)N[C@@H]1CN(c2nc(Nc3cn(CCOCCOCCOCCCCCc4cc(Cl)cc(NC(=O)NCc5ccc6c(c5)CN(C5CCC(=O)NC5=O)C6=O)c4)nc3OC)c3ncn(C)c3n2)C[C@H]1F (stereo partly drawn) [Compound I-122]			100 to 1000 nM	< 250 nM
C=CC(=O)Nc1cc(Nc2nccc(-c3cn(C)c4ccccc34)n2)c(OC)cc1N(C)CCN(C)CCOCCOCCOCCOCCOCCCCCc1cc(Cl)cc(NC(=O)NCc2ccc3c(c2)CN(C2CCC(=O)NC2=O)C3=O)c1 (stereo not drawn) [Compound I-125]			1000 to 5000 nM	250 to 5000 nM
C=CC(=O)NC1CN(c2nc(Nc3cn(CCOCCOCCOCCOCCOCCOCCOCCCCCc4cc(Cl)cc(NC(=O)NCc5ccc6c(c5)CN(C5CCC(=O)NC5=O)C6=O)c4)nc3OC)c3ncn(C)c3n2)C[C@H]1F (stereo partly drawn) [Compound I-130]			100 to 1000 nM	250 to 5000 nM
COc1nn(C)cc1Nc1nc(N2CC(NC(=O)/C=C/CN(C)CCOCCOCCOCCOCCOCCOCCOCCOCCOCCCCCc3cc(Cl)cc(NC(=O)NCc4ccc5c(c4)CN(C4CCC(=O)NC4=O)C5=O)c3)[C@H](F)C2)nc2c1ncn2C (stereo partly drawn) [Compound I-131]			1000 to 5000 nM	250 to 5000 nM
COc1cc(N(C)CCN(C)C)c(NC(=O)/C=C/CN(C)CCOCCOCCOCCOCCOCCOCCOCCOCCOCCCCCc2cc(Cl)cc(NC(=O)NCc3ccc4c(c3)CN(C3CCC(=O)NC3=O)C4=O)c2)cc1Nc1nccc(-c2cn(C)c3ccccc23)n1 (stereo not drawn) [Compound I-132]			1000 to 5000 nM	250 to 5000 nM
C=C(F)C(=O)N1CCN(c2nc(OC[C@@H]3CCCN3CCCOCCOCCOCCOCCOCCOCCOCCOCCOCCCCCc3ccc(Cl)cc3NC(=O)NCc3ccc4c(c3)CN(C3CCC(=O)NC3=O)C4=O)nc3c2CCN(c2cccc4cccc(Cl)c24)C3)C[C@@H]1CC#N (stereo partly drawn) [Compound I-134]		3000 to 10000 nM		250 to 5000 nM
C=C(F)C(=O)N1CCN(c2nc(OC[C@@H]3CCCN3CCCOCCOCCOCCOCCOCCOCCOCCCCCc3ccc(Cl)cc3NC(=O)NCc3ccc4c(c3)CN(C3CCC(=O)NC3=O)C4=O)nc3c2CCN(c2cccc4cccc(Cl)c24)C3)C[C@@H]1CC#N (stereo partly drawn) [Compound I-137]		3000 to 10000 nM		250 to 5000 nM
C=C(F)C(=O)N1CCN(c2nc(OC[C@@H]3CCCN3CCCOCCOCCOCCOCCOCCOCCOCCOCCOCCOCCOCCCCCc3ccc(Cl)cc3NC(=O)NCc3ccc4c(c3)CN(C3CCC(=O)NC3=O)C4=O)nc3c2CCN(c2cccc4cccc(Cl)c24)C3)C[C@@H]1CC#N (stereo partly drawn) [Compound I-138]		3000 to 10000 nM		250 to 5000 nM
COc1cc(N(C)CCN(C)C)c(NC(=O)/C=C/CN(C)CCOCCOCCOCCCCCc2cc(Cl)cc(NC(=O)NCc3ccc4c(c3)CN(C3CCC(=O)NC3=O)C4=O)c2)cc1Nc1nccc(-c2cn(C)c3ccccc23)n1 (stereo not drawn) [Compound I-145]			1000 to 5000 nM	250 to 5000 nM
COc1cc(N(C)CCN(C)C)c(NC(=O)/C=C/CN(C)CCOCCOCCOCCOCCOCCOCCOCCCCCc2cc(Cl)cc(NC(=O)NCc3ccc4c(c3)CN(C3CCC(=O)NC3=O)C4=O)c2)cc1Nc1nccc(-c2cn(C)c3ccccc23)n1 (stereo not drawn) [Compound I-146]			1000 to 5000 nM	250 to 5000 nM
C=C(F)C(=O)N1CCN(c2nc(OC[C@@H]3CCCN3CCCOCCOCCOCCOCCOCCOCCOCCCCCc3cccc(NC(=O)NCc4ccc5c(c4)CN(C4CCC(=O)NC4=O)C5=O)n3)nc3c2CCN(c2cccc4cccc(Cl)c24)C3)C[C@@H]1CC#N (stereo partly drawn) [Compound I-147]		3000 to 10000 nM		5000 to 10000 nM
C=C(F)C(=O)N1CCN(c2nc(OC[C@@H]3CCCN3CCCOCCOCCOCCOCCOCCOCCOCCOCCOCCOCCOCCCCCc3cccc(NC(=O)NCc4ccc5c(c4)CN(C4CCC(=O)NC4=O)C5=O)n3)nc3c2CCN(c2cccc4cccc(Cl)c24)C3)C[C@@H]1CC#N (stereo partly drawn) [Compound I-148]		3000 to 10000 nM		250 to 5000 nM
COc1nn(C)cc1Nc1nc(N2CC(NC(=O)/C=C/CN(C)CCOCCOCCOCCCCCc3cc(Cl)cc(NC(=O)NCc4ccc5c(c4)CN(C4CCC(=O)NC4=O)C5=O)c3)[C@H](F)C2)nc2c1ncn2C (stereo partly drawn) [Compound I-150]			1000 to 5000 nM	250 to 5000 nM
C=C(F)C(=O)N1CCN(c2nc(OC[C@@H]3CCCN3CCCOCCOCCOCCOCCOCCCCCc3cccc(NC(=O)NCc4ccc5c(c4)CN(C4CCC(=O)NC4=O)C5=O)n3)nc3c2CCN(c2cccc4cccc(Cl)c24)C3)C[C@@H]1CC#N (stereo partly drawn) [Compound I-152]		3000 to 10000 nM		> 10000 nM
